Patent publication US7888329B2, “Substituted aryl piperidinylalkynyladenosines as A2AR agonists” (PGxHealth, LLC, priority 2006, dated 2011)

Experiments:
human A1 AR = molecular target: T1, human A1 AR (Homo sapiens, UniProt P30542); assay: Radioligand competition binding with 125I-ABA, membranes of CHO K1 cells stably expressing the receptor; conditions: Ki derived from IC50, class symbols
T1 construct: expressed in transfected cells; membranes
T1 sequence (P30542 1-326): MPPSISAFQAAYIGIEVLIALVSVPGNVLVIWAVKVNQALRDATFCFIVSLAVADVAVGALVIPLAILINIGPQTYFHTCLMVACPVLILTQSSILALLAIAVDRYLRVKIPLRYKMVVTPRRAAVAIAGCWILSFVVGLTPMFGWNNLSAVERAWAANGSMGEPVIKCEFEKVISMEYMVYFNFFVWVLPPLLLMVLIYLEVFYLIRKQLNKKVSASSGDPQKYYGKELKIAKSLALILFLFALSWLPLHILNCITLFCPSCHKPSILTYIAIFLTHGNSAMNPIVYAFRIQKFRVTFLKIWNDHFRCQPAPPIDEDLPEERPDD

[1] = molecular target: T2, recombinant human A2A receptors (Homo sapiens, UniProt P29274); assay: Radioligand competition binding with 125I-APE or 125I-ZM241385, Sf9 cell membranes; conditions: 125I-APE or 125I-ZM241385, Sf9 membranes; class symbols
T2 construct: expressed in transfected cells; host or cells: Sf9 insect cells infected with virus; membranes
T2 sequence (P29274 whole entry): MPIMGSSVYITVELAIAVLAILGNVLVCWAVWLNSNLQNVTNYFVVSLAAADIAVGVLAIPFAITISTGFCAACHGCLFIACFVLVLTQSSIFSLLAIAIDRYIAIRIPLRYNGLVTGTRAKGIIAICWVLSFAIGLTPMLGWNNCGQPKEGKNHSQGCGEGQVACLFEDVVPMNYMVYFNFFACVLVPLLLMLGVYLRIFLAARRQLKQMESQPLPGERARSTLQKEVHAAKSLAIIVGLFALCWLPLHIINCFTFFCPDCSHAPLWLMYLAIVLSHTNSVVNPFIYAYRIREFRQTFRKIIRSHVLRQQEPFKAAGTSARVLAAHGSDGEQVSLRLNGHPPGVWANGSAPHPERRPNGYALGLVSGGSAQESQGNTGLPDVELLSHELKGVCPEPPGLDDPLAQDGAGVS
Description: Cell culture and membrane preparation. Sf9 cells were cultured in Grace's medium supplemented with 10% fetal bovine serum, 2.5 μg/ml amphotericin B and 50 μg/ml gentamycin in an atmosphere of 50% N2/50% O2. Viral infection was performed at a density of 2.5×10^6 cells/mL with a multiplicity of infection of two for each virus used. Infected cells were harvested 3 days post-infection and washed twice in insect PBS (PBS pH 6.3). Cells were then resuspended in lysis buffer (20 mM HEPES pH 7.5, 150 mM NaCl, 3 mM MgCl2, 1 mM α-mercaptoethanol (BME), 5 μg/mL leupeptin, 5 μg/mL pepstatin A, 1 μg/mL aprotinin, and 0.1 mM PMSF) and snap frozen for storage at −80° C. Cells were thawed on ice, brought to 30 mL total volume in lysis buffer, and burst by N2 cavitation (600 psi for 20 minutes). A low-speed centrifugation was performed to remove any unlysed cells (1000×g for 10 minutes), followed by a high-speed centrifugation (17,000×g for 30 minutes). The pellet from the final centrifugation was homogenized in buffer containing 20 mM HEPES pH 8, 1100 mM NaCl, 1% glycerol, 2 μg/mL leupeptin, 2 μg/mL pepstatin A, 2 μg/mL Aprotinin, 0.1 mM PMSF, and 10 μM GDP using a small glass homogenizer followed by passage through a 26 gauge needle. Membranes were aliquoted, snap frozen in liquid N2, and stored at −80° C.
Radioligand Binding Assays. […] Binding experiments were performed in triplicate with 5 μg (A2A) or 25 μg (A1 and A3) membrane protein in a total volume of 00.1 mL HE buffer (20 mM HEPES and 1 mM EDTA) with 1 U/mL adenosine deaminase and 5 mM MgCl2 with or without 50 μM GTPγS. Membranes were incubated with radioligands at room temperature for three hours (for agonists) or two hours (for antagonists) in Millipore Multiscreen® 96-well GF/C filter plates and assays were terminated by rapid filtration on a cell harvester (Brandel, Gaithersburg, Md.) followed by 4×150 μl washes over 30 seconds with ice cold 10 mM Tris-HCl, pH 7.4, 10 mM MgCl2. Nonspecific binding was measured in the presence of 50 μM NECA.

human A3 AR = molecular target: T3, human A3 AR (Homo sapiens, UniProt P0DMS8); assay: Radioligand competition binding with 125I-ABA, membranes of HEK 293 cells stably expressing the receptor; conditions: Ki derived from IC50, class symbols
T3 construct: expressed in transfected cells; membranes
T3 sequence (P0DMS8 1-318): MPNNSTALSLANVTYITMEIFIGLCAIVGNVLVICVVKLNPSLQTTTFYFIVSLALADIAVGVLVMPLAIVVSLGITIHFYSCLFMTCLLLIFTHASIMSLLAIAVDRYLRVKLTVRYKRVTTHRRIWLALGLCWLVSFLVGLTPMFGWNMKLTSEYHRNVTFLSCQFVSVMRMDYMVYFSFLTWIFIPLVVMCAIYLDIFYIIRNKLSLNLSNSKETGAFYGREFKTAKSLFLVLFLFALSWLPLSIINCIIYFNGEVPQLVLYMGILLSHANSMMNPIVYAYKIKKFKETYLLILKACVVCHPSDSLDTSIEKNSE
Description: Cell culture and membrane preparation. Sf9 cells were cultured in Grace's medium supplemented with 10% fetal bovine serum, 2.5 μg/ml amphotericin B and 50 μg/ml gentamycin in an atmosphere of 50% N2/50% O2. Viral infection was performed at a density of 2.5×10^6 cells/mL with a multiplicity of infection of two for each virus used. Infected cells were harvested 3 days post-infection and washed twice in insect PBS (PBS pH 6.3). Cells were then resuspended in lysis buffer (20 mM HEPES pH 7.5, 150 mM NaCl, 3 mM MgCl2, 1 mM α-mercaptoethanol (BME), 5 μg/mL leupeptin, 5 μg/mL pepstatin A, 1 μg/mL aprotinin, and 0.1 mM PMSF) and snap frozen for storage at −80° C. Cells were thawed on ice, brought to 30 mL total volume in lysis buffer, and burst by N2 cavitation (600 psi for 20 minutes). A low-speed centrifugation was performed to remove any unlysed cells (1000×g for 10 minutes), followed by a high-speed centrifugation (17,000×g for 30 minutes). The pellet from the final centrifugation was homogenized in buffer containing 20 mM HEPES pH 8, 1100 mM NaCl, 1% glycerol, 2 μg/mL leupeptin, 2 μg/mL pepstatin A, 2 μg/mL Aprotinin, 0.1 mM PMSF, and 10 μM GDP using a small glass homogenizer followed by passage through a 26 gauge needle. Membranes were aliquoted, snap frozen in liquid N2, and stored at −80° C. Membranes from cells stably expressing the human A1 AR (CHO K1 cells) or A3 AR (HEK 293 cells) were prepared as described (Robeva et al., 1996).
Radioligand Binding Assays. Radioligand binding to recombinant human A2A receptors in Sf9 cell membranes was performed using either the radiolabeled agonist, ^125I-APE (Luthin et al., 1995) or the radiolabeled antagonist, ^125I-ZM241385 (^125I-ZM). To detect the high affinity, GTPγS-sensitive state of A1 and A3 AR, we used the agonist, ^125I-ABA (Linden et al., 1985; Linden et al., 1993). Binding experiments were performed in triplicate with 5 μg (A2A) or 25 μg (A1 and A3) membrane protein in a total volume of 00.1 mL HE buffer (20 mM HEPES and 1 mM EDTA) with 1 U/mL adenosine deaminase and 5 mM MgCl2 with or without 50 μM GTPγS. Membranes were incubated with radioligands at room temperature for three hours (for agonists) or two hours (for antagonists) in Millipore Multiscreen® 96-well GF/C filter plates and assays were terminated by rapid filtration on a cell harvester (Brandel, Gaithersburg, Md.) followed by 4×150 μl washes over 30 seconds with ice cold 10 mM Tris-HCl, pH 7.4, 10 mM MgCl2. Nonspecific binding was measured in the presence of 50 μM NECA. Competition binding assays were performed as described (Robeva et al., 1996) using 0.5-1 nM ^125I-APE, ^125I-ZM241385, or ^125I-ABA. […] The Ki values for competing compound binding to a single site were derived from IC50 values with correction for radioligand and competing compound depletion as described previously (Linden, 1982).

[2] = test system: Purified human neutrophils; assay: Luminol enhanced chemiluminescence (neutrophil oxidative activity), fMLP stimulated; assay type: cell-based; conditions: Homo sapiens, Neutrophil; read-out: Functional
From the text: Chemiluminescence Methods: Luminol enhanced chemiluminescence, a measure of neutrophil oxidative activity, is dependent upon both superoxide production and mobilization of the granule enzyme myeloperoxidase. The light is emitted from unstable high-energy oxygen species such as hypochlorous acid and singlet oxygen generated by activated neutrophils.
Purified human neutrophils (2×10^6/ml) suspended in Hanks balanced salt solution containing 0.1% human serum albumin (HA), adenosine deaminase (1 U/mL) and rolipram (100 nM) were incubated (37 C) in a water bath for 15 min with or without rhTNF (10 U/ml). Following incubation 100 µL aliquots of the PMN were transferred to wells (White walled clear bottom 96 well tissue culture plates Costar #3670; 2 wells/condition) containing […] and luminol (final concentration 100M) with or without adenosine agonist (final agonist concentrations 0.01-1000 nM). The plate was incubated 5 min (37 C) and then fMLP (50 l in HA; final concentration […]) was added to all wells.
Peak chemiluminescence was determined with a Victor 1420 Multilabel Counter in the chemiluminescence mode using the Wallac Workstation software. Data are presented as peak chemiluminescence as percent of activity in the absence of an adenosine agonist. The EC50 was determined using PRISM software. All compounds were tested with PMNs from three separate donors.

| SMILES | Ki (human A1 AR) | Ki [1] | Ki (human A3 AR) | EC50 [2] |
| --- | --- | --- | --- | --- |
| Nc1nc(C#CCC2CCN(C(=O)Oc3ccc(F)cc3)CC2)nc2c1ncn2[C@@H]1O[C@H](CO)[C@@H](O)[C@H]1O [Compound 11, 2-{3-[1-((4-Fluorophenoxy)carbonyl)piperidin-4-yl]propyn-1-yl}adenosine] | < 100 nM | < 1 nM | < 100 nM | < 10 nM |
| Nc1nc(C#CCC2CCN(C(=O)Oc3ccc([N+](=O)[O-])cc3)CC2)nc2c1ncn2[C@@H]1O[C@H](CO)[C@@H](O)[C@H]1O [Compound 12, 2-{3-[1-((4-Nitrophenoxy)carbonyl)piperidin-4-yl]propyn-1-yl}adenosine] | < 100 nM | < 1 nM | < 100 nM | < 1 nM |
| COC(=O)c1ccc(OC(=O)N2CCC(CC#Cc3nc(N)c4ncn([C@@H]5O[C@H](CO)[C@@H](O)[C@H]5O)c4n3)CC2)cc1 [Compound 13, 2-{3-[1-((4-Methoxycarbonylphenoxy)carbonyl)piperidin-4-yl]propyn-1-yl}adenosine] | < 100 nM | < 1 nM | < 100 nM | < 10 nM |
| Nc1nc(C#CCC2CCN(C(=O)Oc3ccc(C(=O)O)cc3)CC2)nc2c1ncn2[C@@H]1O[C@H](C(=O)NC2CC2)C(O)[C@@H]1O (some centres unmarked) [Compound 14, N-Cyclopropyl 2-{3-[1-(4-carboxyphenoxycarbonyl)-4-piperidinyl]-1-propyn-1-yl}adenosine-5′-uronamide] | > 100 nM | < 10 nM | > 100 nM | < 100 nM |
| CCNC(=O)[C@H]1O[C@@H](n2cnc3c(N)nc(C#CCC4CCN(C(=O)Oc5ccc(OC)cc5)CC4)nc32)[C@@H](O)C1O (some centres unmarked) [Compound 15, N-Ethyl 2-{3-[1-(4-methoxyphenoxycarbonyl)-4-piperidinyl]-1-propyn-1-yl}adenosine-5′-uronamide] | < 100 nM | < 1 nM | < 10 nM | < 1 nM |
| CCNC(=O)[C@H]1O[C@@H](n2cnc3c(N)nc(C#CCC4CCN(C(=O)Oc5ccc(C)cc5)CC4)nc32)[C@@H](O)C1O (some centres unmarked) [Compound 16, N-Ethyl 2-{3-[1-(4-methylphenoxycarbonyl)-4-piperidinyl]-1-propyn-1-yl}adenosine-5′-uronamide] | < 100 nM | < 1 nM | < 10 nM | < 1 nM |
| Nc1nc(C#CCC2CCN(C(=O)Oc3ccc(Cl)cc3)CC2)nc2c1ncn2[C@@H]1O[C@H](C(=O)NC2CC2)C(O)[C@@H]1O (some centres unmarked) [Compound 17, N-Cyclopropyl 2-{3-[1-(4-chlorophenoxycarbonyl)-4-piperidinyl]-1-propyn-1-yl}adenosine-5′-uronamide] | < 100 nM | < 1 nM | < 100 nM | < 1 nM |
| Nc1nc(C#CCC2CCN(C(=O)OCc3ccc([N+](=O)[O-])cc3)CC2)nc2c1ncn2[C@@H]1O[C@H](C(=O)NC2CC2)C(O)[C@@H]1O (some centres unmarked) [Compound 18, N-Cyclopropyl 2-{3-[1-(4-nitrobenzloxycarbonyl)-4-piperidinyl]-1-propyn-1-yl}adenosine-5′-uronamide] | < 100 nM | < 1 nM | < 100 nM | < 1 nM |
| CCNC(=O)[C@H]1O[C@@H](n2cnc3c(N)nc(C#CCC4CCN(C(=O)Oc5ccc([N+](=O)[O-])cc5)CC4)nc32)[C@@H](O)C1O (some centres unmarked) [Compound 19, N-Ethyl 2-{3-[1-(4-nitrophenyloxycarbonyl)-4-piperidinyl]-1-propyn-1-yl}adenosine-5′-uronamide] | < 100 nM | < 1 nM | < 10 nM | < 1 nM |
| Cc1ccc(OC(=O)N2CCC(CC#Cc3nc(N)c4ncn([C@@H]5O[C@H](C(=O)NC6CC6)C(O)[C@@H]5O)c4n3)CC2)cc1 (some centres unmarked) [Compound 20, N-Cyclopropyl 2-{3-[1-(4-methylphenyloxycarbonyl)-4-piperidinyl]-1-propyn-1-yl}adenosine-5′-uronamide] | < 100 nM | < 1 nM | > 100 nM | < 1 nM |
| COc1ccccc1OC(=O)N1CCC(CC#Cc2nc(N)c3ncn([C@@H]4O[C@H](C(=O)NC5CC5)C(O)[C@@H]4O)c3n2)CC1 (some centres unmarked) [Compound 21, N-Cyclopropyl 2-{3-[1-(2-methoxyphenyloxycarbonyl)-4-piperidinyl]-1-propyn-1-yl}adenosine-5′-uronamide] | < 100 nM | < 1 nM | < 100 nM | < 10 nM |
